Earlier results as cited in patent publication US9072754B2, “Process for obtaining non-allergic propolis” (MR. GIUSEPPE MARIA RICCHIUTO, priority 2010, dated 2015).

Details: among the compounds of the LB-1 fraction of propolis; literature

CC(C)=CCOC(=O)/C=C/c1ccc(O)c(O)c1 [3-methyl-2-butenyl-caffeate, 3-methyl-2-butenyl caffeate]
allergenic effect: the most allergenic effect
